According to paper PMC11003488 (Journal of Enzyme Inhibition and Medicinal Chemistry, 2023):

Experiments:
ACHN = test: NCI-60 SRB growth inhibition, one-dose and five-dose; assay type: cell-based; conditions: Homo sapiens
A549/ATCC = test: as above; assay type: cell-based; conditions: Homo sapiens
OVCAR-5 = test: as above; assay type: cell-based; conditions: Homo sapiens
LOX IMVI = test: as above; assay type: cell-based; conditions: Homo sapiens
786-0 = test: as above; assay type: cell-based; conditions: Homo sapiens
NCI/ADR-RES = test: as above; assay type: cell-based; conditions: Homo sapiens
SNB-19 = test: as above; assay type: cell-based; conditions: Homo sapiens
SF-539 = test: as above; assay type: cell-based; conditions: Homo sapiens
NCI-H226 = test: as above; assay type: cell-based; conditions: Homo sapiens
CAKI-1 = test: as above; assay type: cell-based; conditions: Homo sapiens
SNB-75 = test: as above; assay type: cell-based; conditions: Homo sapiens
SR = test: as above; assay type: cell-based; conditions: Homo sapiens
HOP-92 = test: as above; assay type: cell-based; conditions: Homo sapiens
HCC-2998 = test: as above; assay type: cell-based; conditions: Homo sapiens
HS 578 T = test: as above; assay type: cell-based; conditions: Homo sapiens
MDA-MB-435 = test: as above; assay type: cell-based; conditions: Homo sapiens
SK-MEL-2 = test: as above; assay type: cell-based; conditions: Homo sapiens
BT-549 = test: as above; assay type: cell-based; conditions: Homo sapiens
OVCAR-4 = test: as above; assay type: cell-based; conditions: Homo sapiens
[1] = test system: NCI 60-cell line panel (full panel); test: NCI-60 SRB growth inhibition, full panel mean / MG-MID; assay type: cell-based, human
MALME-3M = test: NCI-60 SRB growth inhibition, one-dose and five-dose; assay type: cell-based; conditions: Homo sapiens
HCT-15 = test: as above; assay type: cell-based; conditions: Homo sapiens
OVCAR-3 = test: as above; assay type: cell-based; conditions: Homo sapiens
IGROV1 = test: as above; assay type: cell-based; conditions: Homo sapiens
UACC-62 = test: as above; assay type: cell-based; conditions: Homo sapiens
RXF 393 = test: as above; assay type: cell-based; conditions: Homo sapiens
A498 = test: as above; assay type: cell-based; conditions: Homo sapiens
SF-268 = test: as above; assay type: cell-based; conditions: Homo sapiens
NCI-H322M = test: as above; assay type: cell-based; conditions: Homo sapiens
SK-MEL-5 = test: as above; assay type: cell-based; conditions: Homo sapiens
COLO 205 = test: as above; assay type: cell-based; conditions: Homo sapiens
MCF7 = test: as above; assay type: cell-based; conditions: Homo sapiens
K-562 = test: as above; assay type: cell-based; conditions: Homo sapiens
NCI-H460 = test: as above; assay type: cell-based; conditions: Homo sapiens
CCRF-CEM = test: as above; assay type: cell-based; conditions: Homo sapiens
HT29 = test: as above; assay type: cell-based; conditions: Homo sapiens
HCT-116 = test: as above; assay type: cell-based; conditions: Homo sapiens
HOP-62 = test: as above; assay type: cell-based; conditions: Homo sapiens
DU-145 = test: as above; assay type: cell-based; conditions: Homo sapiens
T-47D = test: as above; assay type: cell-based; conditions: Homo sapiens, T47D
SF-295 = test: as above; assay type: cell-based; conditions: Homo sapiens
NCI-H522 = test: as above; assay type: cell-based; conditions: Homo sapiens
[2] = read-out: percent growth inhibition

`CC(=O)Nc1ccc(/C=C/C(=O)c2cccc(NCc3ccc(CO)cc3)c2)cc1` [Compound 5j, (E)-N-(4–(3-(3-((4-(hydroxymethyl)benzyl)amino)phenyl)-3-oxoprop-1-en-1-yl)phenyl) acetamide] showed a GI50 (ACHN) of 10.3 µM, an inhibition at 10 µM (ACHN; [2]) of 155% and a GI50 (A549/ATCC; A549) of 17.2 µM. The inhibition at 10 µM (A549/ATCC; A549, read-out: percent growth inhibition) was 34.3%, the GI50 (OVCAR-5; OVCAR-5) was 12.6 µM and the inhibition at 10 µM (OVCAR-5; OVCAR-5, read-out: percent growth inhibition) was 74%. For the same compound, the GI50 (LOX IMVI) was 2.96 µM, the inhibition at 10 µM (LOX IMVI; [2]) was 194% and the GI50 (786-0; 786-0) was 14.1 µM. It also gave an inhibition at 10 µM (786-0; 786-0, read-out: percent growth inhibition) of 186%, a GI50 (NCI/ADR-RES) of 16.8 µM and an inhibition at 10 µM (NCI/ADR-RES; [2]) of 126%. The GI50 (SNB-19; SNB-19) was 10.1 µM, the inhibition at 10 µM (SNB-19; SNB-19, read-out: percent growth inhibition) was 114% and the GI50 (SF-539; SF-539) was 7.37 µM. The inhibition at 10 µM (SF-539; SF-539, read-out: percent growth inhibition) was 181%, the GI50 (NCI-H226; NCI-H226) was 13.7 µM and the inhibition at 10 µM (NCI-H226; NCI-H226, read-out: percent growth inhibition) was 138%. The GI50 (CAKI-1; CAKI-1) was 14.8 µM, the inhibition at 10 µM (CAKI-1; CAKI-1, read-out: percent growth inhibition) was 134% and the GI50 (SNB-75; SNB-75) was 11.9 µM. The inhibition at 10 µM (SNB-75; SNB-75, read-out: percent growth inhibition) was 18.2%, the GI50 (SR) was 2.61 µM and the GI50 (HOP-92; HOP-92) was 14.1 µM. The inhibition at 10 µM (HOP-92; HOP-92, read-out: percent growth inhibition) was 34.6%, the GI50 (HCC-2998; HCC 2998) was 13.2 µM and the inhibition at 10 µM (HCC-2998; HCC 2998, read-out: percent growth inhibition) was 199%. It also gave a GI50 (HS 578 T) of 18.9 µM, an inhibition at 10 µM (HS 578 T; [2]) of 57.9% and a GI50 (MDA-MB-435; MDA-MB-435) of 13.8 µM. The inhibition at 10 µM (MDA-MB-435; MDA-MB-435, read-out: percent growth inhibition) was 79.8%, the GI50 (SK-MEL-2; SK-MEL-2) was 15.3 µM and the inhibition at 10 µM (SK-MEL-2; SK-MEL-2, read-out: percent growth inhibition) was 53.9%. It also gave a GI50 (BT-549; BT-549) of 12.1 µM, an inhibition at 10 µM (BT-549; BT-549, read-out: percent growth inhibition) of 119% and a GI50 (OVCAR-4; OVCAR-4) of 14.8 µM. The inhibition at 10 µM (OVCAR-4; OVCAR-4, read-out: percent growth inhibition) was 75.5%, the GI50 ([1]; Homo sapiens, 60 cell, read-out: Full panel GI50 mean) was 10.3 µM and the “Full panel Mean GI %” value ([1]; mean over NCI-60 panel, single dose 10 µM) was 120.44%. The GI50 (MALME-3M) was 11 µM, the inhibition at 10 µM (MALME-3M; [2]) was 141% and the GI50 (HCT-15; HCT-15) was 4.63 µM. For the same compound, the inhibition at 10 µM (HCT-15; HCT-15, read-out: percent growth inhibition) was 140%, the GI50 (OVCAR-3; OVCAR-3) was 4.63 µM and the inhibition at 10 µM (OVCAR-3; OVCAR-3, read-out: percent growth inhibition) was 138%. The GI50 (IGROV1; IGROV-1) was 6.71 µM, the inhibition at 10 µM (IGROV1; IGROV-1, read-out: percent growth inhibition) was 119% and the GI50 (UACC-62; UACC-62) was 10.8 µM. It also gave an inhibition at 10 µM (UACC-62; UACC-62, read-out: percent growth inhibition) of 156%, a GI50 (RXF 393; RXF 393) of 11.8 µM and an inhibition at 10 µM (RXF 393; RXF 393, read-out: percent growth inhibition) of 190%. The GI50 (A498; A498) was 15 µM, the inhibition at 10 µM (A498; A498, read-out: percent growth inhibition) was 3.83% and the GI50 (SF-268; SF-268) was 15.4 µM. The inhibition at 10 µM (SF-268; SF-268, read-out: percent growth inhibition) was 88.8%, the GI50 (NCI-H322M) was 14.4 µM and the inhibition at 10 µM (NCI-H322M; [2]) was 38.8%. For the same compound, the GI50 (SK-MEL-5; SK-MEL-5) was 10.2 µM, the inhibition at 10 µM (SK-MEL-5; SK-MEL-5, read-out: percent growth inhibition) was 183% and the GI50 (COLO 205; COLO 205) was 16 µM. For the same compound, the inhibition at 10 µM (COLO 205; COLO 205, read-out: percent growth inhibition) was 150%, the GI50 (MCF7; MCF7) was 3.19 µM and the inhibition at 10 µM (MCF7; MCF7, read-out: percent growth inhibition) was 126%. The GI50 (K-562; K562) was 3.43 µM, the inhibition at 10 µM (K-562; K562, read-out: percent growth inhibition) was 104% and the GI50 (NCI-H460; NCI-H460) was 13.4 µM. It also gave an inhibition at 10 µM (NCI-H460; NCI-H460, read-out: percent growth inhibition) of 148%, a GI50 (CCRF-CEM) of 8.8 µM and an inhibition at 10 µM (CCRF-CEM; [2]) of 121%. It also gave a GI50 (HT29; HT-29) of 6.06 µM, an inhibition at 10 µM (HT29; HT-29, read-out: percent growth inhibition) of 180% and a GI50 (HCT-116; HCT-116, HCT-116, five-dose screening) of 3.35 µM. For the same compound, the inhibition at 10 µM (HCT-116; HCT-116, read-out: percent growth inhibition) was 193%, the GI50 (HOP-62; HOP-62) was 18.9 µM and the inhibition at 10 µM (HOP-62; HOP-62, read-out: percent growth inhibition) was 93.7%. For the same compound, the GI50 (DU-145; DU-145) was 5.03 µM, the inhibition at 10 µM (DU-145; DU-145, read-out: percent growth inhibition) was 84.8% and the GI50 (T-47D) was 13.5 µM. It also gave an inhibition at 10 µM (T-47D; [2]) of 70.2%, a GI50 (SF-295; SF-295) of 12.4 µM and an inhibition at 10 µM (SF-295; SF-295, read-out: percent growth inhibition) of 79.5%. The GI50 (NCI-H522; NCI-H522) was 5 µM and the inhibition at 10 µM (NCI-H522; NCI-H522, read-out: percent growth inhibition) was 178%.
